pKi: −log10 of the molar value.
Columns and labels:
[1] = molecular target: T1, cloned human and rat GPR-14 (UniProt Q9UKP6); test: Radioligand binding, [125I] h-U-II on HEK-293 cell membranes; conditions: HEK-293 cell membranes with stable cloned GPR-14, 200 pM [125I] h-U-II; species of receptor not given
T1 sequence (Q9UKP6 1-389): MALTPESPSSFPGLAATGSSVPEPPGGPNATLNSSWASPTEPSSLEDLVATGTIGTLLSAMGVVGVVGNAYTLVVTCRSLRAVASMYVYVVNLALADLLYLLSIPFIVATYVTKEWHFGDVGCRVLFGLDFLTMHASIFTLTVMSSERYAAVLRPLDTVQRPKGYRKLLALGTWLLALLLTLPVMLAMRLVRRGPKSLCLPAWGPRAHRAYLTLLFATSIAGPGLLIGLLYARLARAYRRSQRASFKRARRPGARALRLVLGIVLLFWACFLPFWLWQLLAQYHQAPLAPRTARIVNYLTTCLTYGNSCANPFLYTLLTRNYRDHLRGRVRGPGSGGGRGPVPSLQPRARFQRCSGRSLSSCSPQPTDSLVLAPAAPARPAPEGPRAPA
Protocol: HEK-293 cell membranes containing stable cloned human and rat GPR-14 (20 ug/assay) were incubated with 200 pM [125I] h-U-II (200 Ci/mmol^−1 in the presence of increasing concentrations of test compounds in DMSO (0.1 nM to 10 uM), in a final incubation volume of 200 ul (20 mM Tris-HCl, 5 mM MgCl2). Incubation was done for 30 minutes at room temperature followed by filtration GF/B filters with Brandel cell harvester. ^125I labeled U-II binding was quantitated by gamma counting. Nonspecific binding was defined by ^125I U-II binding in the presence of 100 nM of unlabeled human U-II. Analysis of the data was performed by nonlinear least square fitting.

pKi [1]	melting point	Structure (SMILES)
6.28	–	CCN(CC)CCOc1cc(NS(=O)(=O)c2cc(Cl)c(Oc3ccc([N+](=O)[O-])cc3Cl)c(Cl)c2)ccc1Cl [Example 19, 3,5-Dichloro-N-[4-chloro-3-(2-diethylamino-ethoxy)-phenyl]-4-(2-chloro-4-nitro-phenoxy)-benzenesulfonamide]
–	103 to 106 °C (dec.)	CN(C)CCOc1cc(NS(=O)(=O)c2ccc(Oc3cccc(Cl)c3C#N)cc2)ccc1Cl [Example 1, 4-(3-Chloro-2-cyano-phenoxy)N-[4-chloro-3-(2-dimethylamino-ethoxy)-phenyl]-benzenesulfonamide]
